# Experimental data published in the NIST ThermoML archive (doi:10.1007/s10765-018-2361-8).
# Numbers after ± are expanded uncertainties.
# Conditions: for mass density / kinematic viscosity: 101.33 kPa; for mass density / kinematic viscosity / vapor or sublimation pressure: Liquid; for mass density: Pycnometric method; for surface tension liquid-gas: Capillary rise; for kinematic viscosity: Capillary tube (Ostwald / Ubbelohde) method; for vapor or sublimation pressure: Closed cell (Static) method
structure (smiles),measurement,setting,value
CC(C)O [propan-2-ol],mass density,263.1 K,810.9 ± 1.1 kg/m3
same,mass density,283.1 K,795.3 ± 1 kg/m3
same,surface tension liquid-gas,293.2 K,21.4 ± 0.2 mN/m
same,kinematic viscosity,293.2 K,3.12e-06 ± 6e-08 m2/s
same,mass density,295.3 K,784.3 ± 1 kg/m3
same,vapor or sublimation pressure,297.9 K,6.38 ± 1 kPa
same,kinematic viscosity,303.2 K,2.35e-06 ± 5e-08 m2/s
same,surface tension liquid-gas,303.3 K,20.6 ± 0.2 mN/m
same,mass density,303.6 K,777.5 ± 1 kg/m3
same,vapor or sublimation pressure,303.7 K,8.93 ± 1 kPa
same,surface tension liquid-gas,313.2 K,19.8 ± 0.2 mN/m
same,vapor or sublimation pressure,321.2 K,21.91 ± 1 kPa
same,kinematic viscosity,323.2 K,1.39e-06 ± 5e-08 m2/s
same,surface tension liquid-gas,323.3 K,19 ± 0.2 mN/m
same,mass density,323.4 K,760.1 ± 1.1 kg/m3
same,surface tension liquid-gas,333.2 K,18.2 ± 0.2 mN/m
same,vapor or sublimation pressure,333.5 K,39.46 ± 1.1 kPa
same,surface tension liquid-gas,343.3 K,17.4 ± 0.2 mN/m
same,kinematic viscosity,343.3 K,9e-07 ± 5e-08 m2/s
same,mass density,343.3 K,741 ± 1.1 kg/m3
same,vapor or sublimation pressure,343.3 K,61.57 ± 1.1 kPa
same,vapor or sublimation pressure,352.9 K,92.28 ± 1.3 kPa
same,vapor or sublimation pressure,362.5 K,134.96 ± 1.4 kPa
